In the supplement of paper PMC10307832:

What was measured:
Test in all cases: relative viability (nuclei count vs DMSO), 5 days (fraction); higher = more cells survive
Quizartinib + Navitoclax = compound: CC(C)(C)c1cc(NC(=O)Nc2ccc(-c3cn4c(n3)sc3cc(OCCN5CCOCC5)ccc34)cc2)no1 [Quizartinib] + CC1(C)CCC(c2ccc(Cl)cc2)=C(CN2CCN(c3ccc(C(=O)NS(=O)(=O)c4ccc(N[C@H](CCN5CCOCC5)CSc5ccccc5)c(S(=O)(=O)C(F)(F)F)c4)cc3)CC2)C1 [Navitoclax] (partner 0.5 µM)
Outline: (§1)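 Nuclei were stained with Hoechst during a one-step fixation (final 0.05% Triton X-100, 1% formaldehyde, 1 ug/ml Hoechst) carried out 5 days after dosing, then counted on 4× images. The cells, lung cancer lines in 1536-well plates, had been dosed by pin tool the day after seeding with one drug alone or a fixed anchor-drug dose plus five library-drug doses (not always all listed) in √10 steps. Relative viability is the nuclei count in treated wells divided by that in vehicle wells, and each value is the median of duplicate plates.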

Quizartinib + Bortezomib = compound: CC(C)(C)c1cc(NC(=O)Nc2ccc(-c3cn4c(n3)sc3cc(OCCN5CCOCC5)ccc34)cc2)no1 [Quizartinib] + CC(C)C[C@H](NC(=O)[C@H](Cc1ccccc1)NC(=O)c1cnccn1)B(O)O [Bortezomib] (partner 0.002 µM)
Outline: as §1

Quizartinib + Pemetrexed = compound: CC(C)(C)c1cc(NC(=O)Nc2ccc(-c3cn4c(n3)sc3cc(OCCN5CCOCC5)ccc34)cc2)no1 [Quizartinib] + Nc1nc2[nH]cc(CCc3ccc(C(=O)N[C@@H](CCC(=O)O)C(=O)O)cc3)c2c(=O)[nH]1 [Pemetrexed] (partner 0.2 µM)
Outline: as §1

YM155 + Phenformin = compound: COCC[n+]1c2c(n(Cc3cnccn3)c1C)C(=O)c1ccccc1C2=O [YM155] + N=C(N)NC(=N)NCCc1ccccc1 [Phenformin] (partner 250 µM)
Outline: as §1

| Cell Line | relative viability (Quizartinib + Navitoclax; first compound 0.001 µM) | relative viability (Quizartinib + Navitoclax; first compound 0.003162 µM) | relative viability (Quizartinib + Navitoclax; first compound 0.01 µM) | relative viability (Quizartinib + Navitoclax; first compound 0.03162 µM) | relative viability (Quizartinib + Navitoclax; first compound 0.1 µM) | relative viability (Quizartinib + Bortezomib; first compound 0.001 µM) | relative viability (Quizartinib + Bortezomib; first compound 0.003162 µM) | relative viability (Quizartinib + Bortezomib; first compound 0.01 µM) | relative viability (Quizartinib + Bortezomib; first compound 0.03162 µM) | relative viability (Quizartinib + Bortezomib; first compound 0.1 µM) | relative viability (Quizartinib + Pemetrexed; first compound 0.001 µM) | relative viability (Quizartinib + Pemetrexed; first compound 0.003162 µM) | relative viability (Quizartinib + Pemetrexed; first compound 0.01 µM) | relative viability (Quizartinib + Pemetrexed; first compound 0.03162 µM) | relative viability (Quizartinib + Pemetrexed; first compound 0.1 µM) | relative viability (YM155 + Phenformin; first compound 0.002 µM) | relative viability (YM155 + Phenformin; first compound 0.006325 µM) | relative viability (YM155 + Phenformin; first compound 0.02 µM) | relative viability (YM155 + Phenformin; first compound 0.06325 µM) |
| --- | --- | --- | --- | --- | --- | --- | --- | --- | --- | --- | --- | --- | --- | --- | --- | --- | --- | --- | --- |
| 201T | 1.24 | 1.21 | 1.25 | 1.24 | 1.25 | 1.09 | 1.09 | 1.1 | 1.09 | 1.12 | 0.272 | 0.311 | 0.306 | 0.302 | 0.365 | 0.405 | 0.443 | 0.492 | 0.475 |
| A549 | 1.26 | 1.11 | 1.25 |  | 1.13 |  |  |  |  |  |  |  |  |  |  | 0.17 | 0.0769 | 0.177 | 0.137 |
| A-427 | 0.94 | 0.881 | 0.869 | 0.906 | 0.95 | 0.911 | 0.952 | 1.06 | 1 | 1.01 | 0.781 | 0.96 | 0.84 | 0.884 | 0.954 | 0.314 | 0.39 | 0.365 | 0.333 |
| ABC-1 |  |  |  |  |  | 0.283 | 0.232 | 0.299 | 0.28 | 0.262 |  |  |  |  |  | 0.271 | 0.239 | 0.233 | 0.207 |
| BEN | 0.0726 | 0.0683 | 0.107 | 0.051 | 0.0586 | 0.583 | 0.677 | 0.703 | 0.766 | 0.83 | 0.739 | 0.959 | 0.681 | 0.659 | 0.78 | 0.28 | 0.258 | 0.227 | 0.266 |
| CAL-12T | 1.15 | 1.1 | 1.33 | 1.24 | 1.32 | 0.809 | 1.23 | 0.93 | 0.924 | 1.24 | 1.01 | 1.01 | 1.36 | 0.998 | 1.49 | 0.497 | 0.607 | 0.658 | 0.642 |
| COR-L23 | 1.01 | 0.968 | 1.02 | 0.875 | 1.03 | 0.965 | 0.908 | 1.14 | 0.902 | 0.889 | 0.193 | 0.189 | 0.208 | 0.194 | 0.211 | 0.399 | 0.446 | 0.451 | 0.393 |
| COR-L 105 | 0.536 | 0.71 | 0.907 | 0.651 | 0.729 | 0.64 | 0.632 | 0.634 | 0.632 | 0.617 | 0.985 | 1.18 | 1.29 |  | 1.3 | 0.343 | 0.462 | 0.508 | 0.581 |
| Calu-6 | 0.749 | 0.877 | 0.923 | 0.701 | 0.759 | 0.924 | 0.991 | 1.02 | 0.811 | 1.07 |  |  |  |  |  |  |  |  |  |
| ChaGo-K-1 | 0.439 | 1.02 | 1.02 |  | 1.52 | 0.693 | 1.16 | 1.06 |  | 1.28 |  | 0.247 | 0.264 | 0.26 | 0.264 | 0.469 | 0.488 | 0.519 | 0.578 |
| EBC-1 | 0.411 | 0.436 | 0.524 | 0.479 | 0.527 | 0.524 | 0.505 | 0.561 | 0.495 | 0.466 |  |  |  |  |  |  |  |  |  |
| EKVX | 0.953 | 0.88 | 0.901 | 0.978 | 0.992 | 0.892 | 0.938 | 1.01 | 1.13 | 1 |  | 0.363 | 0.434 | 0.39 | 0.351 | 0.239 | 0.218 | 0.24 | 0.231 |
| EMC-BAC-2 | 1.13 | 1.14 | 1.31 | 1.18 | 1.19 | 0.986 | 1.14 | 0.985 | 0.857 | 1.05 | 0.365 | 0.44 | 0.451 |  | 0.493 | 0.463 | 0.514 | 0.542 | 0.568 |
| EPLC-272H | 1.06 | 0.964 | 1.15 | 1.18 | 1.05 | 0.778 | 0.836 | 0.818 | 0.69 | 0.75 | 0.255 | 0.361 | 0.4 | 0.26 | 0.305 | 0.347 | 0.317 | 0.286 | 0.304 |
| H3255 | 0.523 | 0.442 | 0.531 | 0.661 | 0.468 | 0.776 | 0.713 | 0.7 | 0.946 | 0.774 | 0.531 | 0.579 | 0.546 | 0.593 | 0.586 | 0.335 | 0.336 | 0.376 | 0.374 |
| HARA | 0.783 | 1.14 | 1.12 | 1.14 | 1.16 | 0.931 | 1.11 | 1.15 | 1.07 | 1.17 | 0.257 | 0.266 | 0.266 | 0.222 | 0.304 | 0.476 | 0.444 | 0.48 | 0.425 |
| HCC-15 | 0.756 | 0.652 | 0.665 | 0.689 | 0.724 | 0.759 | 0.992 | 0.987 | 0.984 | 0.988 | 0.223 | 0.21 | 0.248 | 0.216 | 0.224 | 0.465 | 0.464 | 0.464 | 0.494 |
| HCC-44 | 0.891 | 0.952 | 1.04 | 0.955 | 0.817 | 0.878 | 0.937 | 0.941 | 0.838 | 0.775 | 0.572 | 0.665 | 0.655 | 0.65 | 0.606 | 0.132 | 0.283 | 0.248 | 0.202 |
| HCC-78 | 0.813 | 0.868 | 0.766 | 0.598 | 0.842 | 0.435 | 0.477 | 0.546 | 0.511 | 0.448 | 0.915 | 0.882 | 0.968 | 0.869 | 0.917 | 0.638 | 0.73 | 0.779 | 0.76 |
